This note sets out measurements from article PMC11173485, “Connecting GSK-3β Inhibitory Activity with IKK-β or ROCK-1 Inhibition to Target Tau Aggregation and Neuroinflammation in Alzheimer’s Disease—Discovery, In Vitro and In Cellulo Activity of Thiazole-Based Inhibitors” (Molecules, 2024).

Holding throughout (test): Eurofins KinaseProfiler radiometric selectivity screen
Common to all, as to format: biochemical
Conditions in all cases: Km ATP, remaining enzyme activity, n = 2

One assay addresses T1, CDK4/cyclinD3 (Homo sapiens, UniProt P11802).
T1 construct: purchased Eurofins Discovery (KinaseProfiler service)
Here is the method:
(§1) Compound 62 is an ATP-competitive inhibitor of GSK-3β, raising concerns about selectivity. Therefore, we performed a selectivity screening at Eurofins Discovery on the CMGC group of kinases, which included the CDK, DYRK, MAPK, and GSK families (Figure 3 and Table S1 in the SI).
(§2) Selectivity studies for compound 62
(§3) Selectivity studies were performed at Eurofins in Kinase Enzymatic Radiometric [Km ATP]
(§4) Kinase Profiler Lead Hunter Assay. The percentage of enzymatic activity was measured at 1
(§5) µM of compound 62 in duplicate for 17 selected kinases.
(§6) Table S1. Inhibitory activity of compound 62 against panel of selected CMGC kinases.
(§7) kinase % of enzyme activity at 1 μM of compound 62±SD*
(§8) *Where n = 2, the value reported here is actually range / √ 2 .

The target in the next assay is T2, JNK3 (Homo sapiens, UniProt P53779).
T2 construct: purchased Eurofins Discovery (KinaseProfiler service)
T2 sequence (P53779 whole entry): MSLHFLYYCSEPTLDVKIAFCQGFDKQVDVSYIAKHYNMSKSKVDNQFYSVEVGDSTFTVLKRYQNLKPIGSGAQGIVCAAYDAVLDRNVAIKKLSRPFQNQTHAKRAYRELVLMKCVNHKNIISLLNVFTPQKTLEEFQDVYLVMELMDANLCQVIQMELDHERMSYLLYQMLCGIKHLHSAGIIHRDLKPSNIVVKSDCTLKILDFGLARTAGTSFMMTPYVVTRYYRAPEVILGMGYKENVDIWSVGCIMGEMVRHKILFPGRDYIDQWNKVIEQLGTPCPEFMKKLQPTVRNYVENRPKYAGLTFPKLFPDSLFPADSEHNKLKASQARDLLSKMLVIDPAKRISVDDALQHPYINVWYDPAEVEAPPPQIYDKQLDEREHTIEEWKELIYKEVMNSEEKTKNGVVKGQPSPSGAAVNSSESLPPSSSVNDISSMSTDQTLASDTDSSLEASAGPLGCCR
Here is the method: as §1, §2, §3, §4, §5, §6, §7, §8

The next assay deals with T3, SAPK2a(T106M) (Homo sapiens, UniProt Q16539, T106M).
T3 construct: purchased Eurofins Discovery (KinaseProfiler service)
T3 sequence (Q16539 whole entry T106M): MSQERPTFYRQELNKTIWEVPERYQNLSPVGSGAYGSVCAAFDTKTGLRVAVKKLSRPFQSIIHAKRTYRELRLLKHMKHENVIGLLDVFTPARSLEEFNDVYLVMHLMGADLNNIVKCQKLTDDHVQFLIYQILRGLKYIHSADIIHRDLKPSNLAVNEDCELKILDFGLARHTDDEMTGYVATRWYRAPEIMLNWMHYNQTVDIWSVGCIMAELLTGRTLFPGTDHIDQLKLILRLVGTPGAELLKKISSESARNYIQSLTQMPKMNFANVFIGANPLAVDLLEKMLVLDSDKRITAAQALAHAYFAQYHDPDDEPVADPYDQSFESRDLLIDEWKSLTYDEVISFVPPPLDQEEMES
The protocol: as §1, §2, §3, §4, §5, §6, §7, §8

A further assay has as its target T4, CDK1/cyclinB (Homo sapiens, UniProt P06493).
T4 construct: purchased Eurofins Discovery (KinaseProfiler service)
Here is the method:
as §1, §2, §3, §4, §5, §6, §7, §8

The next assay has as its target T5, CDK9/cyclin T1 (Homo sapiens, UniProt P50750).
T5 construct: purchased Eurofins Discovery (KinaseProfiler service)
The protocol: as §1, §2, §3, §4, §5, §6, §7, §8

A further assay deals with T6, CDK6/cyclinD3 (Homo sapiens, UniProt Q00534).
T6 construct: purchased Eurofins Discovery (KinaseProfiler service)
T6 sequence (Q00534 whole entry): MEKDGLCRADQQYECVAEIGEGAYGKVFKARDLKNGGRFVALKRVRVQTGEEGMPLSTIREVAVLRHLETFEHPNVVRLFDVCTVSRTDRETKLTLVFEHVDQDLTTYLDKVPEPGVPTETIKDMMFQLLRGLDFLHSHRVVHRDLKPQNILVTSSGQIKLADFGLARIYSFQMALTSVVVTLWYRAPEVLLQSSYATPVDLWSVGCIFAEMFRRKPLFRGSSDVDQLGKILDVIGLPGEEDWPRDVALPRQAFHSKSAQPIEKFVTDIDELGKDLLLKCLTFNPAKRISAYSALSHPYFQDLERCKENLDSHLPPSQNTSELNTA
T6 sequence (P30281 whole entry partner): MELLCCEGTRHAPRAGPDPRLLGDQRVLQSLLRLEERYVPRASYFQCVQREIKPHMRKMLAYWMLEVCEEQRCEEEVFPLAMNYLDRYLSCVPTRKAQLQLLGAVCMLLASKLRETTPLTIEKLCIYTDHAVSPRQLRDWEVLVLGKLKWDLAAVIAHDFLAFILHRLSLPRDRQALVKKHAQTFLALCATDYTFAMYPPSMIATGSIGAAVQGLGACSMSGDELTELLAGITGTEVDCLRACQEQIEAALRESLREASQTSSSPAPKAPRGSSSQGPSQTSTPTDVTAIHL
The protocol: as §1, §2, §3, §4, §5, §6, §7, §8

T5 sequence (P50750 whole entry): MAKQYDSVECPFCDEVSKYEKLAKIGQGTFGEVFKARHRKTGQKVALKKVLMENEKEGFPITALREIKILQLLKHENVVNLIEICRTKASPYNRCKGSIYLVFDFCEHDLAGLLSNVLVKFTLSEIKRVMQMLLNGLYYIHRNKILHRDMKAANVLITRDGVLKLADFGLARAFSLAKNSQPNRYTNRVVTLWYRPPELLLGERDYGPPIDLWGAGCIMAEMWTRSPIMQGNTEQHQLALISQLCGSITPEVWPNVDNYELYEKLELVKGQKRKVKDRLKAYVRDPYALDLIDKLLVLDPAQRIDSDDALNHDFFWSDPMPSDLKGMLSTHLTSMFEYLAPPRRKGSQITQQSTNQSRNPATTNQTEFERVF
T5 sequence (O60563 whole entry partner): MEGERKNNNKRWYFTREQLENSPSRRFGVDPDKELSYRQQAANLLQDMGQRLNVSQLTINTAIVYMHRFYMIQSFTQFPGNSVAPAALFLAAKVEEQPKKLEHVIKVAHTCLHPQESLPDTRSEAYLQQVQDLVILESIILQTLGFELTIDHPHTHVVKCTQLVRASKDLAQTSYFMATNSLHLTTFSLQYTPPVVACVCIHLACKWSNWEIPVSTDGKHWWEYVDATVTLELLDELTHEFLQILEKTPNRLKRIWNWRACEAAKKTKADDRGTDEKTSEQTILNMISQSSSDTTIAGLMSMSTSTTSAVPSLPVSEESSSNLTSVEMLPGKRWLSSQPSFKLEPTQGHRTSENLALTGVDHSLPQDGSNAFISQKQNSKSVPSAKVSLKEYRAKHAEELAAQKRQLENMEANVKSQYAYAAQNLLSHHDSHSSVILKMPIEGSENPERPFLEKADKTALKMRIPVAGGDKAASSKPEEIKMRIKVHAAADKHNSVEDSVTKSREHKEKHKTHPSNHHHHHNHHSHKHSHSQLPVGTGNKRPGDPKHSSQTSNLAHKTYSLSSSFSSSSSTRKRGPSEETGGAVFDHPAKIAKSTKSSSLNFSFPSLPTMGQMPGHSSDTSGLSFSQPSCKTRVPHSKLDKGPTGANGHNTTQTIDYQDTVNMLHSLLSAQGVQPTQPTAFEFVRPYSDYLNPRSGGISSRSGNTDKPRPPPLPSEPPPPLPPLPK
T1 sequence (P11802 whole entry): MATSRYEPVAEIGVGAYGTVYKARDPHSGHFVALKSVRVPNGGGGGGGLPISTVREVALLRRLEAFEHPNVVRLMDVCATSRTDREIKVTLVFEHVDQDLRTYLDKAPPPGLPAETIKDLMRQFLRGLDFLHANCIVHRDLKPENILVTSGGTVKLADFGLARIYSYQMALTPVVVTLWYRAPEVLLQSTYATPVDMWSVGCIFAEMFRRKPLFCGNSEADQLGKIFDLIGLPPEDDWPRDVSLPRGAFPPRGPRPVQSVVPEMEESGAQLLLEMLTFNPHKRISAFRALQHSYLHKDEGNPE
T1 sequence (P30281 whole entry partner): as the sequence (P30281 whole entry partner) above
T4 sequence (P06493 whole entry): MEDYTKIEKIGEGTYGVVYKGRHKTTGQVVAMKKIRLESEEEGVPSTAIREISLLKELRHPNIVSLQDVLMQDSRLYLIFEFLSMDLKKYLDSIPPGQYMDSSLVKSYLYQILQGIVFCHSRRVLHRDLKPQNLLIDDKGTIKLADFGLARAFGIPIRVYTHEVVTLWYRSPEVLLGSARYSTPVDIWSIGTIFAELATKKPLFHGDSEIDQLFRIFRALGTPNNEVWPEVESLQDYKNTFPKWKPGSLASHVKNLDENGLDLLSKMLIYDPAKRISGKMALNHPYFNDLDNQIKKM
T4 sequence (P14635 whole entry partner): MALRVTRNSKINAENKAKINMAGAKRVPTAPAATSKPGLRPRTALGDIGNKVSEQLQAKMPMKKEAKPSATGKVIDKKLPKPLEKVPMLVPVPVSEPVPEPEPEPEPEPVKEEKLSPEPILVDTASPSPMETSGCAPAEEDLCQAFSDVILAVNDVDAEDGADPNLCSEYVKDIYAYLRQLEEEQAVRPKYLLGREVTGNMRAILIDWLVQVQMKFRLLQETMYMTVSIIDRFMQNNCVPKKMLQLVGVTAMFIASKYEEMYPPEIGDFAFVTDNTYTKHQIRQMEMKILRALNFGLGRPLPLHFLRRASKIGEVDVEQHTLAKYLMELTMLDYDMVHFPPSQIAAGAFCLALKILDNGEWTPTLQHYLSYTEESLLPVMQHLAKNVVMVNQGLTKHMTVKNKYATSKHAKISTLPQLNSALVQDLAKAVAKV

In the case of `O=C1NC2(CCOC2)Nc2cc(-c3ccnc(NC(=O)C4CC4)c3)sc21` (stereo not drawn) [Compound 62, N-(4-(4′-Oxo-3′,4,4′,5-tetrahydro-1′H,2H-spiro[furan-3,2′-thieno [3,2-d]pyrimidin]-6′-yl)pyridin-2-yl)cyclopropanecarboxamide], the “% of enzyme activity at 1 μM of compound 62±SD, CDK4/cyclinD3” value on CDK4/cyclinD3 is on record as 83±5%. Besides, the “% of enzyme activity at 1 μM of compound 62±SD, JNK3” value at JNK3 was 21±2%. Further, the “% of enzyme activity at 1 μM of compound 62±SD, SAPK2a(T106M)” value on SAPK2a(T106M) is listed as 80±1%. In addition, the “% of enzyme activity at 1 μM of compound 62±SD, CDK1/cyclinB” value at CDK1/cyclinB worked out at 33±1%. Moreover, the “% of enzyme activity at 1 μM of compound 62±SD, CDK9/cyclin T1” value on CDK9/cyclin T1 is 16±2%. Further, the “% of enzyme activity at 1 μM of compound 62±SD, CDK6/cyclinD3” value at CDK6/cyclinD3 stood at 88±0%.
